Measurements published in a melting point compilation (Tetko et al.; mined from patent text by program, amines drawn as free bases though some values may be those of a salt).

Row | SMILES | melting point [°C]
1 | CC(=O)OCc1cc([N+](=O)[O-])ccc1N1C(=O)c2ccc(Cl)cc2C1=O | 124 to 125
2 | O=C(Cl)Cc1ccccc1Br | 79
3 | NS(=O)(=O)C1(c2cnn(CC(F)=C(F)F)c(=O)c2-c2ccc(F)cc2)C=CC=CC1 (stereo unspecified) | 173 to 175
4 | CCOC(=O)c1cn(-c2ccccc2)nc1OCc1ccc(OCc2nc(-c3ccccc3)oc2C)c(OC)c1 | 160 to 161
5 | Clc1cc2cc[nH]c2cn1 | 192 to 194
6 | CCC(=O)Nc1ccc(Oc2cccc(OC)c2)cc1 | 79 to 81
7 | Brc1ccc2c(c1)CCOC2CCN1CCN(c2ccc(OCc3ccccc3)cc2)CC1 (stereo unspecified) | 87 to 90
8 | CC(=O)C(=NO)c1ccc(OC[Si](C)(C)c2ccc(F)cc2)cc1 | 115 to 117
9 | CCOCC1OC(n2cnc3c(NCc4cccc(I)c4)ncnc32)C(O)C1O (stereo unspecified) | 164 to 166
10 | CCCCC(=O)c1c(CSc2nccn2C)nc2cc(OC)c(OC)cc2c1-c1ccc(OC)c(OC)c1 | 125 to 127
11 | C1=C(COc2ccccc2)CCN(Cc2c[nH]c3ncccc23)C1 | 161 to 163
12 | CC(=O)C(CCCCCCc1ccc(O)cc1)C(C)=O | 68 to 69
13 | COc1ccc(C(=O)c2ccc(OCc3nc(-c4ccccc4)oc3C)nc2)c(O)c1 | 137 to 138
14 | CCOC(=O)CC(O)c1ccc([N+](=O)[O-])c(OC)c1 (stereo unspecified) | 54 to 56
15 | O=C1N(c2cc(Cl)cc(Cl)c2)C(=O)[C@]2(Cc3ccc(Br)cc3)C[C@@H](O)CN12 | 88.3
16 | CC(C)(C)COc1c(-c2ccc(S(N)(=O)=O)cc2)cnn(-c2ccc(F)c(F)c2)c1=O | 173 to 175
17 | CCCCOC(=O)CNC(=O)c1ccc2cc(C(=O)OC)[nH]c2c1 | 181 to 184
18 | CSC(=N)NS(=O)(=O)CCl | 60 to 62
19 | COc1cn(C(C)C(=O)N(C)C)nc1-c1ccccc1 (stereo unspecified) | 96.5 to 98
20 | COc1ccc(C(=O)N[C@H]2CCN(C)C[C@H]2c2ccccc2)cc1OC (relative stereo) | 153 to 155
21 | CSCc1noc(-c2cc(C(C)(C)C)c(O)c(C(C)(C)C)c2)n1 | 97 to 98
22 | Cc1nc(N2CCN(CCCc3ccccc3)C2=O)sc1C(=O)NCc1cccnc1 | 127 to 128
23 | CCC(=O)c1cc(C(=O)C(=O)c2cccc(OC)c2)cn1CC | 97
24 | COC(=O)/C=C/c1ccc(CC(C)NCC(O)c2cccc(Br)c2)cc1 (stereo unspecified) | 105 to 111
25 | Cn1cc(-c2cc3cccnc3[nH]2)c2cc(C(=O)NCCO)ccc21 | 256 to 257
26 | O=C1CC(=CCl)c2c(O)cc(O)cc2O1 | 228 to 230

Row | SMILES | melting point [°C]
27 | CC(C(=O)O)C1CCCc2c1n(Cc1ccc(Cl)cc1)c1ccc(F)cc21 (stereo unspecified) | 203 to 205
28 | O=[N+]([O-])c1ccccc1Oc1ccc(Cl)cc1 | 33 to 35
29 | OCC1OC(n2cnc3c(N4CCCC4)nc(Cl)nc32)C(O)C1O (stereo unspecified) | 229
30 | C[C@H](N)C(c1ccccc1)c1ccccc1 | 76 to 77
31 | Cc1nc[nH]c1CSCCNC(=N)NCCSCc1nccs1 | 149 to 151
32 | CCC(O)(CO)c1ccc(OCc2ccc3ccccc3c2)c(OC)c1 (stereo unspecified) | 120
33 | FC(F)(F)c1n[nH]c(C(F)(F)F)n1 | 74 to 75
34 | Cc1ccccc1Oc1cccc2c1OC(=O)C2 | 110 to 111
35 | CNS(=O)(=O)/C=C/c1ccc2c(c1)c(C1CCN(C)CC1)cn2C | 155 to 159
36 | Cc1ccccc1C(CCC(=O)O)Oc1cc(OCc2cccnc2)ccc1C#N (stereo unspecified) | 130 to 134
37 | Cc1ccc(OC2=NS(=O)(=O)N=C(Oc3ccc(C)cc3)N2C)cc1 | 282 to 286
38 | CC(=O)N(NC(N)=S)c1ccc([N+](=O)[O-])cc1 | 242
39 | CCn1ncc2c1ncc1c(=O)[nH]c3nc(SC)nn3c12 | > 300
40 | C=C(F)CCc1cccc(C2(c3ccc(OC(F)F)cc3)N=C(N)N(C)C2=O)c1 (stereo unspecified) | 58 to 60
41 | O=C(O)Cc1ccc(OCCNC(=O)C2Cc3ccccc3N2S(=O)(=O)c2ccc(-c3ccc(F)cc3)cc2)cc1 (stereo unspecified) | 81
42 | N#Cc1cccc(C2=Nc3cc(CO)c(-c4ccccc4F)cc3NC(=O)C2)c1 | 90 to 91
43 | COC(=O)c1ccc(CNc2ccc3c(c2)C(C)(C)CCC3(C)C)cc1 | 104 to 107
44 | O=S(=O)(O)CCCN1CCCc2ccccc21 | 233 to 237
45 | CN1CCC(C2(C(N)=O)Cc3ccc([N+](=O)[O-])cc3C2=O)CC1 (stereo unspecified) | 189 to 190
46 | CC(=NO)c1ccccc1N | 55 to 60
47 | O=C(O)Cc1ccc(Cc2n[nH]c3c2c(=O)n(-c2ccccc2)c2ncccc32)cc1 | 297 to 300
48 | O=C(O)CC(C(=O)NC(CO)Cc1ccccc1)C1(c2ccc(-c3ccccc3)cc2)C=CNC1 (stereo unspecified) | 151 to 154
49 | O=c1c2ccccc2cc2sccn12 | 135 to 136
50 | O=C(O)C(O)C1CCN(Cc2ccccc2)C1 (stereo unspecified) | 174 to 176
51 | Nc1nc(N)nc(Cc2cc3ccccc3s2)n1 | 216 to 218
52 | Cc1noc(NS(=O)(=O)c2ccc(I)cc2)c1Br | 166 to 173

Row | SMILES | melting point [°C]
53 | CC(=O)Nc1ccccc1OCCCO | 78 to 80
54 | COC(=O)c1c(CC#N)c(-c2ccc3c(c2)OCO3)c2c3c(ccc2c1C)OCO3 | 215 to 217
55 | Cc1cccc(Cn2nnc(C(N)=O)c2N)c1 | 200 to 202
56 | CCOC(=O)C(=C(C)N)c1nc(N)c([N+](=O)[O-])nc1Cl | 162 to 163
57 | O=C(CN1CCOCC1)Nc1cccc2c1C(=O)c1c-2n[nH]c1-c1ccc(N2CCNCC2)cc1 | 259
58 | CCCc1c(CSc2nnc(SCc3ccc(OC(C)C(=O)O)cc3)s2)ccc(C(C)=O)c1O (stereo unspecified) | 138
59 | NC(=S)NN=Cc1ccc(N)cn1 | 205 to 207
60 | C=C1NC(NC(C)CC)=C(C(=O)OCC)C(NN)=C1C#N (stereo unspecified) | 120 to 121
61 | Cc1ccc(C(=O)c2ccc(O)cc2)cc1O | 174 to 175
62 | C[C@@H]1CCCN1CCc1ccc2cc(-c3ccc(C#N)cc3)ccc2n1 | 164
63 | FC(F)Oc1ccc(C2=NNCC2c2ccccc2)cc1 (stereo unspecified) | 65 to 75
64 | CCCOc1nsc(NC(=O)NC)c1C#N | 220
65 | CC(=O)OCC=C(C)C=CC=C(C)C=O | 71 to 72
66 | COC(=O)c1nn(CCN(C)C)c2nc3cc(OC)ccc3cc12 | 127 to 128
67 | O=C(O)c1cccnc1Oc1ccc(-c2nnn[nH]2)cc1 | 225 to 230
68 | c1ccc(-c2coc3cc4c(cc23)CCC4)cc1 | 43 to 46
69 | COc1cccc(CNc2ncnc3c2sc2nc(N4CCSCC4)c4c(c23)CC(C)(C)CC4)c1OC | 112 to 114
70 | COCC1CCCN(/C(C)=C(/C#N)C(N)=S)C1 (stereo unspecified) | 151 to 152
71 | O=C1C(Cl)=C(c2ccccc2)C(=O)N1c1cccc(Cl)c1 | 67 to 68
72 | CCCCCn1c2ccccc2c2cc(C(=O)N3CCOCC3)ccc21 | 99 to 101
73 | Cc1cc(C#N)cc(C)c1C(=O)CBr | 76
74 | CCCCOc1ccc(-c2ccc3c(c2)C=C(C(=O)OC)CCS3(=O)=O)cc1 | 123 to 125
75 | COC(=O)CC1c2ccc(Cl)cc2NC(=O)C1[N+](=O)[O-] (stereo unspecified) | 135
76 | c1csc(C2=NCC3COCCN3c3cc4c(cc32)OCCO4)c1 (stereo unspecified) | 192 to 194
